# From patent publication US4801697A, “Physiologically active substance TPI and production thereof” (Toyo Jozo Kabushiki Kaisha, priority 1985, dated 1989)
# Legend:
# [1] = test system: bovine heart PDE; experiment: bovine heart PDE inhibitory action (5'-AMP produced from c-AMP measured by HPLC); type: biochemical; settings: 0.4 mM c-AMP, 30 μg protein PDE, pH 7.5, 30° C., 30 minutes
# Description: 40 mM Tris-HCl buffer solution (pH 7.5), 2 mM magnesium chloride, 0.4 mM c-AMP, PDE (30 μg protein, Boehringer Mannheim Co.) and TPI are combined to form a reaction mixture (1.0 ml) and the same is incubated at 30° C. for 30 minutes.
# [2] = test system: mice; experiment: acute toxicity, intraperitoneal injection in mice; type: in vivo; settings: 100 mg/kg intraperitoneally
# [3] = Solubility; type: physicochemical; settings: for Solubility: insoluble: hexane, benzene and petroleum ether; for Solubility: soluble: lower alcohol such as methanol, ethanol and butanol, ethyl acetate, dimethylsulfoxide, aqueous alkali
SMILES,IC50 concentration [1] [µg/mL],deaths [2],Solubility: insoluble [3],Solubility: soluble [3],Solubility: soluble ([3]; chloroform)
"COC(=O)C1=C(C)NC(C)=C(C(=O)OCCN(C)Cc2ccccc2)C1c1cccc([N+](=O)[O-])c1 (stereo not shown) [Nicardipine, nicardipine, reference compound]",6.0,–,–,–,–
"COc1ccc(Cc2nccc3cc(OC)c(OC)cc23)cc1OC [Papaverine, papaverine, reference compound]",25,–,–,–,–
CCCCCCCc1cc(OC(=O)c2c(CCCCCCC)cc(O)cc2O[C@@H]2O[C@H](CO)[C@@H](O)[C@H](O)[C@H]2O)cc(O)c1C(=O)O [TPI-1],2.8,No deaths occurred,Insoluble,Soluble,–
CCCCCCCc1cc(OC(=O)c2c(CCCCCCC)cc(O)cc2O[C@@H]2O[C@H](CO)[C@H](O)[C@H](O)[C@H]2O)cc(O)c1C(=O)O [TPI-2],5.4,–,Insoluble,Soluble,–
CCCCCCCc1cc(OC(=O)c2c(CCCCCCC)cc(O)cc2O[C@@H]2O[C@H](COC(C)=O)[C@@H](O)[C@H](O)[C@H]2O)cc(O)c1C(=O)O [TPI-3],2.8,–,Insoluble,Soluble,–
CCCCCCCc1cc(OC(=O)c2c(CCCCCCC)cc(O)cc2O[C@@H]2O[C@H](COC(C)=O)[C@H](O)[C@H](O)[C@H]2O)cc(O)c1C(=O)O [TPI-4],3.5,–,Insoluble,Soluble,–
CCCCCCCc1cc(OC(=O)c2c(O)cc(O)cc2CCCCCCC)cc(O)c1C(=O)O [TPI-5],2.3,–,Insoluble,–,Soluble
"Cn1c(=O)c2[nH]cnc2n(C)c1=O [Teophyllin, theophyllin, reference compound]",470,–,–,–,–
